Key:
Test in all cases: Cell viability drug screen, 12-point dose-response AUC
Type in all cases: cell-based, human
FU97 = tested on: FU97; design: Average Area Under the Viability Curve (AUC), AUC norm value: scale not given here; conditions: FU97 cells, 72 hours
Method in brief: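 Trapezoidal AUC of a 12-point, DMSO-normalized dose-response curve. Luminescent viability was measured after 72 h of exposure at 37° C to half-log serial dilutions (0.5% DMSO control), dosed 24 h after plating FU97 cells at 5×10^3 per well.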

OCUM1 = OCUM1 cells, 72 hours
Method in brief: (§1)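 Viability: luminescence (Glo kit, 15 min RT), normalized to 0.5% DMSO vehicle. Dosing: half-log, 12 concentrations, 72 h. Cells: 5×10^3/well, treated 24 h after plating. Value: trapezoidal AUC, mean of repeats.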

SNU16 = SNU16 cells, 72 hours
Method in brief: as §1

NCC19 = NCC19 cells, 72 hours
Method in brief: as §1

SNU484 = conditions: 72 hours; for Average Area Under the Viability Curve (AUC), AUC norm value: SNU484 cells (SEM subtype)
Method in brief: as §1

SNU601 = SNU601 cells, 72 hours
Method in brief: as §1

SNU719 = SNU719 cells, 72 hours
Method in brief: as §1

SK4 = conditions: 72 hours; for Average Area Under the Viability Curve (AUC), AUC norm value: SK4 cells (SEM subtype)
Method in brief: as §1

YCC11 = conditions: 72 hours; for Average Area Under the Viability Curve (AUC), AUC norm value: YCC11 cells (SEM subtype)
Method in brief: as §1

MKN28 = MKN28 cells, 72 hours
Method in brief: as §1

KATO3 = KATO3 cells, 72 hours
Method in brief: as §1

SNU1 = SNU1 cells, 72 hours
Method in brief: as §1

MKN74 = MKN74 cells, 72 hours
Method in brief: as §1

NCC20 = NCC20 cells, 72 hours
Method in brief: as §1

YCC2 = YCC2 cells, 72 hours
Method in brief: as §1

SNU1967 = SNU1967 cells, 72 hours
Method in brief: as §1

NCC24 = NCC24 cells, 72 hours
Method in brief: as §1

SNU1750 = conditions: 72 hours; for Average Area Under the Viability Curve (AUC), AUC norm value: SNU1750 cells (SEM subtype)
Method in brief: as §1

SNU668 = conditions: 72 hours; for Average Area Under the Viability Curve (AUC), AUC norm value: SNU668 cells (SEM subtype)
Method in brief: as §1

MKN45 = conditions: 72 hours; for Average Area Under the Viability Curve (AUC), AUC norm value: MKN45 cells (non-SEM subtype)
Method in brief: as §1

NCI_N87 = NCI_N87 cells, 72 hours
Method in brief: as §1

SNU620 = SNU620 cells, 72 hours
Method in brief: as §1

Hs746T = conditions: 72 hours; for Average Area Under the Viability Curve (AUC), AUC norm value: Hs746T cells (SEM subtype)
Method in brief: as §1

AGS = conditions: 72 hours; for Average Area Under the Viability Curve (AUC), AUC norm value: AGS cells (non-SEM subtype)
Method in brief: as §1

SNU638 = SNU638 cells, 72 hours
Method in brief: as §1

MKN1 = MKN1 cells, 72 hours
Method in brief: as §1

NCC59 = NCC59 cells, 72 hours
Method in brief: as §1

YCC3 = YCC3 cells, 72 hours
Method in brief: as §1

SNU216 = conditions: 72 hours; for Average Area Under the Viability Curve (AUC), AUC norm value: SNU216 cells (non-SEM subtype)
Method in brief: as §1

SMILES: C/C(=C\c1csc(C)n1)[C@@H]1C[C@@H]2O[C@@H]2CCC[C@H](C)[C@H](O)[C@@H](C)C(=O)C(C)(C)[C@@H](O)CC(=O)O1 [Epothilone A]
- area under the viability curve (AUC), normalized (FU97; 12-point dose-response): 0.9454
- area under the viability curve (AUC), normalized (OCUM1; 12-point dose-response): 1.699
- area under the viability curve (AUC), normalized (SNU16; 12-point dose-response): −1.12
- area under the viability curve (AUC), normalized (NCC19; 12-point dose-response): 0
- area under the viability curve (AUC), normalized (SNU484; SNU484 cells, 12-point dose-response): −0.4364
- area under the viability curve (AUC), normalized (SNU601; 12-point dose-response): −0.2006
- area under the viability curve (AUC), normalized (SNU719; 12-point dose-response): 4.484
- area under the viability curve (AUC), normalized (SK4; SK4 cells, 12-point dose-response): −0.9541
- area under the viability curve (AUC), normalized (YCC11; YCC11 cells, 12-point dose-response): −1.2702
- area under the viability curve (AUC), normalized (MKN28; 12-point dose-response): −1.4393
- area under the viability curve (AUC), normalized (KATO3; 12-point dose-response): 4.761
- area under the viability curve (AUC), normalized (SNU1; 12-point dose-response): −1.75
- area under the viability curve (AUC), normalized (MKN74; 12-point dose-response): 0.2913
- area under the viability curve (AUC), normalized (NCC20; 12-point dose-response): −0.5459
- area under the viability curve (AUC), normalized (YCC2; 12-point dose-response): 0.1784
- area under the viability curve (AUC), normalized (SNU1967; 12-point dose-response): 0.6477
- area under the viability curve (AUC), normalized (NCC24; 12-point dose-response): −1.8431
- area under the viability curve (AUC), normalized (SNU1750; SNU1750 cells, 12-point dose-response): 1.039
- area under the viability curve (AUC), normalized (SNU668; SNU668 cells, 12-point dose-response): −0.2909
- area under the viability curve (AUC), normalized (MKN45; MKN45 cells, 12-point dose-response): 0.6604
- area under the viability curve (AUC), normalized (NCI_N87; 12-point dose-response): −1.51
- area under the viability curve (AUC), normalized (SNU620; 12-point dose-response): −2.268
- area under the viability curve (AUC), normalized (Hs746T; Hs746T cells, 12-point dose-response): 1.217
- area under the viability curve (AUC), normalized (AGS; AGS cells, 12-point dose-response): −1.655
- area under the viability curve (AUC), normalized (SNU638; 12-point dose-response): 0.3118
- area under the viability curve (AUC), normalized (MKN1; 12-point dose-response): −1.14
- area under the viability curve (AUC), normalized (NCC59; 12-point dose-response): 3.583
- area under the viability curve (AUC), normalized (YCC3; 12-point dose-response): 2.8742
- area under the viability curve (AUC), normalized (SNU216; SNU216 cells, 12-point dose-response): 2.403

SMILES: Nc1nc(F)nc2c1ncn2[C@@H]1O[C@H](COP(=O)(O)O)[C@@H](O)[C@@H]1O [Fludarabine Phosphate (Fludara), Fludarabine Phosphate]
- Average Area Under the Viability Curve (AUC), AUC norm value (FU97): 2.928
- Average Area Under the Viability Curve (AUC), AUC norm value (OCUM1): −0.3967
- Average Area Under the Viability Curve (AUC), AUC norm value (SNU16): −0.44
- Average Area Under the Viability Curve (AUC), AUC norm value (NCC19): 2.411
- Average Area Under the Viability Curve (AUC), AUC norm value (SNU484): 1.309
- Average Area Under the Viability Curve (AUC), AUC norm value (SNU601): −0.5439
- Average Area Under the Viability Curve (AUC), AUC norm value (SNU719): 2.046
- Average Area Under the Viability Curve (AUC), AUC norm value (SK4): −1.653
- Average Area Under the Viability Curve (AUC), AUC norm value (YCC11): −0.6417
- Average Area Under the Viability Curve (AUC), AUC norm value (MKN28): 0.00328
- Average Area Under the Viability Curve (AUC), AUC norm value (KATO3): 1.165
- Average Area Under the Viability Curve (AUC), AUC norm value (SNU1): −0.7644
- Average Area Under the Viability Curve (AUC), AUC norm value (MKN74): −0.1731
- Average Area Under the Viability Curve (AUC), AUC norm value (NCC20): −2.507
- Average Area Under the Viability Curve (AUC), AUC norm value (YCC2): −0.7765
- Average Area Under the Viability Curve (AUC), AUC norm value (SNU1967): 2.186
- Average Area Under the Viability Curve (AUC), AUC norm value (NCC24): 1.037
- Average Area Under the Viability Curve (AUC), AUC norm value (SNU1750): 1.972
- Average Area Under the Viability Curve (AUC), AUC norm value (SNU668): −1.511
- Average Area Under the Viability Curve (AUC), AUC norm value (MKN45): −1.029
- Average Area Under the Viability Curve (AUC), AUC norm value (NCI_N87): −0.06169
- Average Area Under the Viability Curve (AUC), AUC norm value (SNU620): −2.289
- Average Area Under the Viability Curve (AUC), AUC norm value (Hs746T): 1.97
- Average Area Under the Viability Curve (AUC), AUC norm value (AGS): −2.783
- Average Area Under the Viability Curve (AUC), AUC norm value (SNU638): 0.5006
- Average Area Under the Viability Curve (AUC), AUC norm value (MKN1): 0.9748
- Average Area Under the Viability Curve (AUC), AUC norm value (NCC59): 1.479
- Average Area Under the Viability Curve (AUC), AUC norm value (YCC3): 0
- Average Area Under the Viability Curve (AUC), AUC norm value (SNU216): 1.771

SMILES: Nc1ccn([C@@H]2O[C@H](CO)[C@@H](O)C2(F)F)c(=O)n1 [Gemcitabine (Gemzar), Gemcitabine]
- Average Area Under the Viability Curve (AUC), AUC norm value (FU97): 1.888
- Average Area Under the Viability Curve (AUC), AUC norm value (OCUM1): −1.402
- Average Area Under the Viability Curve (AUC), AUC norm value (SNU16): 0.514
- Average Area Under the Viability Curve (AUC), AUC norm value (NCC19): 1.697
- Average Area Under the Viability Curve (AUC), AUC norm value (SNU484): −0.2757
- Average Area Under the Viability Curve (AUC), AUC norm value (SNU601): 0.2471
- Average Area Under the Viability Curve (AUC), AUC norm value (SNU719): 3.628
- Average Area Under the Viability Curve (AUC), AUC norm value (SK4): −0.8764
- Average Area Under the Viability Curve (AUC), AUC norm value (YCC11): −1.649
- Average Area Under the Viability Curve (AUC), AUC norm value (MKN28): 1.089
- Average Area Under the Viability Curve (AUC), AUC norm value (KATO3): 4.1466
- Average Area Under the Viability Curve (AUC), AUC norm value (SNU1): −0.3367
- Average Area Under the Viability Curve (AUC), AUC norm value (MKN74): −1.402
- Average Area Under the Viability Curve (AUC), AUC norm value (NCC20): −0.9089
- Average Area Under the Viability Curve (AUC), AUC norm value (YCC2): 0.1111
- Average Area Under the Viability Curve (AUC), AUC norm value (SNU1967): −4.705
- Average Area Under the Viability Curve (AUC), AUC norm value (NCC24): −1.1
- Average Area Under the Viability Curve (AUC), AUC norm value (SNU1750): 0
- Average Area Under the Viability Curve (AUC), AUC norm value (SNU668): −1.312
- Average Area Under the Viability Curve (AUC), AUC norm value (MKN45): 1.053
- Average Area Under the Viability Curve (AUC), AUC norm value (NCI_N87): 1.33
- Average Area Under the Viability Curve (AUC), AUC norm value (SNU620): −1.64
- Average Area Under the Viability Curve (AUC), AUC norm value (Hs746T): 1.71
- Average Area Under the Viability Curve (AUC), AUC norm value (AGS): −2.364
- Average Area Under the Viability Curve (AUC), AUC norm value (SNU638): −2.404
- Average Area Under the Viability Curve (AUC), AUC norm value (MKN1): −0.9169
- Average Area Under the Viability Curve (AUC), AUC norm value (NCC59): 3.024
- Average Area Under the Viability Curve (AUC), AUC norm value (YCC3): 0.1853
- Average Area Under the Viability Curve (AUC), AUC norm value (SNU216): 1.837

Reference: patent US20250129430A1, “HIGH ATP-AFFINITY PROTEIN AS THERAPEUTIC TARGET FOR INTRACTABLE CANCER MOLECULAR SUBTYPES AND INHIBITOR THEREOF” (VeraVerse Co., Ltd., priority 2021, published 2025)
